Assay results reported in patent US12329726B2, “Biomarkers for efficacy of prophylactic treatments against stress-induced affective disorders” (The Trustees of Columbia University in the City of New York, priority 2017, dated 2025).

Key:
[1] = test system: plasma amino acid-derived neurotransmitters and precursors; experiment: Separate plasma analysis of metabolites involved in neurotransmission, stressed mice; type: in vivo
[2] = test system: treatment-resistant MDD (TRD) patients; details: cited from earlier work
mouse models of stress = details: cited from earlier work
129S6/SvEvTac mice [3] = experiment: 3-shock contextual fear conditioning (CFC), freezing; details: ketamine 30 mg kg-1 i.p., single dose 1 week before 3-shock CFC; vs saline
129S6/SvEvTac mice [4] = experiment: Context exposure without shocks (no-shock control), freezing; details: ketamine 30 mg kg-1 i.p., 1 week before context exposure without shocks; vs saline
PFC metabolites [5] = experiment: Metabolomic profiling of PFC, non-stressed mice (ketamine, no shock)
HPC metabolites [6] = experiment: Metabolomic profiling of HPC, non-stressed mice (ketamine, no shock); details: context exposure group (no shock), following prophylactic ketamine administration
plasma metabolites [7] = experiment: Metabolomic profiling of plasma, non-stressed mice (ketamine, no shock); details: prophylactic ketamine, mice not administered shocks
plasma metabolites [8] = experiment: Untargeted metabolomic profiling of plasma, stressed mice (ketamine + CFC); details: prophylactic ketamine + stress
HPC metabolites [9] = experiment: Untargeted metabolomic profiling of hippocampus (HPC), stressed mice (ketamine + CFC)
PFC metabolites [10] = experiment: Untargeted metabolomic profiling of prefrontal cortex (PFC), stressed mice (ketamine + CFC)
[11] = biological target: T1, kappa-opioid receptor (KOR) (Rattus norvegicus, UniProt P34975); details: administered before the FPS test; cited from earlier work
T1 construct: host or cells: live rats (behavioural test)

[12] = Plasma, CFC group, following prophylactic ketamine administration
[13] = single injection 30 mg kg-1, 1 week before a stressor
[14] = ketamine 30 mg/kg without CFC stress
[15] = HPC, CFC group, following prophylactic ketamine administration
[16] = prophylactic ketamine + stress, MetaboAnalyst 3.0
[17] = PFC, CFC group, following prophylactic ketamine administration
[18] = prophylactic ketamine + stress, vs saline

T1 sequence (P34975 whole entry): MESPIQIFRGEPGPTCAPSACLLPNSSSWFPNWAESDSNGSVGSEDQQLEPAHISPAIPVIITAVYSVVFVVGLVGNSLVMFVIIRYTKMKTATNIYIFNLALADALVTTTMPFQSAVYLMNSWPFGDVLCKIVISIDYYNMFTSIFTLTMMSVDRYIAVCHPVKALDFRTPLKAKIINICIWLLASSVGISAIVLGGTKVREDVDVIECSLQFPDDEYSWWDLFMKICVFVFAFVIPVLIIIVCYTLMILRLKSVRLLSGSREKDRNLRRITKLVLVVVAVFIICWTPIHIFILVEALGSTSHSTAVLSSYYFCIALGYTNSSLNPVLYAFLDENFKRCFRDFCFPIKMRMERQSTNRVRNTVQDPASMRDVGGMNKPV

CNC1(c2ccccc2Cl)CCCCC1=O (racemic) [ketamine, (RS)-2-(2-chlorophenyl)-2-(methylamino)cyclohexanone]
5-Hydroxy-L-tryptophan (5-HTP) level, change [1, 12]: Increase | D-Serine (Ser) level, change [1, 12]: Decrease | Gamma-aminobuytric acid (GABA) level, change [1, 12]: Decrease | L-Glutamic acid (Glu) level, change [1, 12]: Decrease | N-Acetyl-L-tyrosine (NALT) level, change [1, 12]: Decrease | O-Phosphoethanolamine (PE) level, change [1, 12]: Increase | Plasma serine and glutamic acid (excitatory neurotransmitters) ([1]; prophylactic ketamine + stress): serine and glutamic acid were decreased | Persistence of antidepressant effects ([2]; following a single infusion): 1-2 weeks | Antidepressant onset ([2]; single infusion, TRD patients): ≤ 2 h | Time window for prophylactic efficacy before a stressor (mouse models of stress; not 1 month or 1 hour before): approximately 1 week | Duration of protection after injection (mouse models of stress; [13]): up to 4 weeks | Stress-induced depressive-like behavior and social avoidance behavior (mouse models of stress; [13]): prevented stress-induced depressive-like behavior and social avoidance behavior | Fear response (freezing) during context re-exposure (129S6/SvEvTac mice [3]): attenuated the fear response | Freezing behavior during CFC encoding (training) (129S6/SvEvTac mice [3]): did not alter freezing behavior during CFC encoding | Freezing behavior during context exposure or re-exposure, no shocks (129S6/SvEvTac mice [4]): did not alter freezing behavior during context exposure or re-exposure | Number of purine metabolites significantly altered in one hemisphere of PFC or HPC, no stress (PFC metabolites [5]; [14]): 3 metabolites | Number of pyrimidines significantly altered in one hemisphere of PFC or HPC, no stress (PFC metabolites [5]; [14]): 2 | Purine metabolite changes in PFC and HPC without stress (PFC metabolites [5]; prophylactic ketamine without stress): these changes were not observed | Amino acid-derived neurotransmitter metabolites in brain of non-stressed mice (PFC metabolites [5]; prophylactic ketamine, non-stressed mice): only the inhibitory neurotransmitter metabolite taurine was changed | Taurine (Tau) level, change (HPC metabolites [6]): Increase | Purine or pyrimidine metabolites in plasma, no shocks (plasma metabolites [7]): no changes in purines or pyrimidine metabolites were observed | Pathway analysis of changed metabolites in plasma (plasma metabolites [8]): purine metabolism, pyrimidine metabolism, the citrate cycle (TCA cycle), and the pentose phosphate pathway were most significantly changed | Ribose and ribulose phosphate (pentose phosphate pathway intermediates) in plasma (plasma metabolites [8]): significantly changed | Purine metabolites in the plasma (plasma metabolites [8]; vs saline): significantly increased purine metabolites | Pyrimidine metabolites in the plasma (plasma metabolites [8]; with the exception of 5,6-dihydrouridine): increased expression of pyrimidine metabolites | D-Alanine (Ala) level, change (HPC metabolites [9]; [15]): Increase | Gamma-aminobuytric acid (GABA) level, change (HPC metabolites [9]; [15]): Increase | L-Glutamic acid (Glu) level, change (HPC metabolites [9]; [15]): Increase | O-Phosphoethanolamine (PE) level, change (HPC metabolites [9]; [15]): Increase | Taurine (Tau) level, change (HPC metabolites [9]; [15]): Increase | Pathway analysis of changed metabolites in the HPC: further pathways (HPC metabolites [9]; [16]): altered alanine, aspartate, and glutamate metabolism; glutamine and glutamate metabolism; and taurine and hypotaurine metabolism | Pathway analysis of changed metabolites in the HPC: purine metabolism (HPC metabolites [9]; [16]): purine metabolism was also significantly altered | D-Serine (Ser) level, change (PFC metabolites [10]; [17]): Decrease | Glycine (Gly) level, change (PFC metabolites [10]; [17]): Decrease | L-Tyrosine (Tyr) level, change (PFC metabolites [10]; [17]): Decrease | Phenylalanine (Phe) level, change (PFC metabolites [10]; [17]): Decrease | Correlation of dUDP expression in the PFC with freezing levels upon context re-exposure (PFC metabolites [10]; mice given prophylactic ketamine prior to stress, regression analysis): positively correlated with freezing levels | Number of metabolites changed in the same direction in both hemispheres of the PFC and HPC (PFC metabolites [10]; of the 8 changed, prophylactic ketamine + stress): 6 metabolites | Number of metabolites changed in both hemispheres of the PFC and HPC (PFC metabolites [10]; prophylactic ketamine 30 mg kg-1 + CFC stressor, PFC and HPC): 8 metabolites | Pathway analysis of changed metabolites in the PFC (PFC metabolites [10]; [16]): purine metabolism; phenylalanine, tyrosine, and tryptophan metabolism; and phenylalanine metabolism are most significantly changed | Levels of AMP and ATP in PFC, HPC and plasma (PFC metabolites [10]; prophylactic ketamine + stress, both hemispheres of PFC and HPC, and plasma): increases levels of adenosine monophosphate (AMP) and ATP | Inhibitory neurotransmitter metabolites in PFC and HPC (PFC metabolites [10]; prophylactic ketamine + stress, e.g. alanine, GABA, taurine): almost all inhibitory neurotransmitter metabolites were increased | Excitatory neurotransmitter metabolites in PFC and HPC (PFC metabolites [10]; prophylactic ketamine + stress, e.g. serine, tyrosine, phenylalanine, exception glutamic acid): nearly all excitatory neurotransmitter metabolites were decreased | Adenosine and guanosine metabolites in both hemispheres of PFC and HPC (PFC metabolites [10]; [18]): increased | Inosine metabolites in both hemispheres of PFC and HPC (PFC metabolites [10]; [18]): decreased

Oc1ccc2c3c1O[C@H]1c4[nH]c5c(c4C[C@@]4(O)[C@@H](C2)N(CC2CC2)CC[C@]314)C[C@@]1(O)[C@H]2Cc3ccc(O)c4c3[C@@]1(CCN2CC1CC1)[C@H]5O4 [norBNI, nor-binaltorphimine]
Conditioned fear in FPS test [11]: attenuated conditioned fear
